# Source: PMC11574108, “4-Furanylvinylquinoline derivative as a new scaffold for the design of oxidative stress initiator and glucose transporter inhibitor drugs” (Scientific Reports, 2024)
# How the values were obtained:
# Type in all cases: cell-based, human
# HO-1 = experiment: Western blot, HO-1 protein level; conditions: 24 h
# Description: The cells (500,000) were seeded in 35 mm Petri dishes (Nunc) and incubated in a solution of the tested compound (0.5 µM and 1 µM) for 24 h and 48 h. The cells were then dissociated using trypsin, collected in Eppendorf tubes, and centrifuged at 2,000 rpm. Next, cell pellets were resuspended in complete RIPA buffer containing a Halt Protease Inhibitor Cocktail and Halt Phosphatase Inhibitor Cocktail along with 0.5 M EDTA (all reagents from Thermo Fisher Scientific) and lysed on ice for 20 min. Afterward, the lysates were sonicated and centrifuged at 10,000 rpm for 10 min at 4 °C. The obtained supernatants were collected for further analysis. The protein concentration was determined using a Micro BCA™ Protein Assay Kit (Thermo Fisher Scientific) according to the manufacturer’s procedure. Equal amounts of proteins (16 µg) were electrophoresed on SDS-Page gels and transferred onto nitrocellulose membranes. Novex Sharp Pre-Stained Protein Standard (Thermo Fisher Scientific) was used as a colored molecular weight marker. The membranes were blocked in 5% non-fat milk prepared in TPBS (PBS supplemented by 0.1% Tween-20) for 1 h. After blocking, the membranes were cut, and then incubated with specific primary monoclonal antibodies (all purchased from Cell Signaling) overnight at 4 °C. The antibodies for the target proteins (CDK1 Mouse mAb #9116, p53 Mouse mAb #2524, FAS Mouse mAb #8023, GLUT-1 Rabbit mAb #12939, HO-1 Rabbit mAb #5853, p21^Waf1/Cip1 Rabbit mAb #2947, PARP #9542) were diluted 1:1000, while the antibodies for the reference proteins (GAPDH Rabbit mAb #2118, β-actin Mouse mAb #3700, and vinculin Rabbit mAb #13901) were diluted 1:2000. The following day, the membranes were washed in TPBS and incubated with horseradish peroxidase (HRP)-conjugated secondary antibodies (Anti-rabbit IgG, HRP-linked Antibody #7074 or Anti-mouse IgG, HRP-linked Antibody #7076) for 1 h at room temperature. The membranes were then washed in TPBS and incubated with a SuperSignal™ West Pico Chemiluminescent Substrate (Thermo Fisher Scientific). […]
# GLUT-1 = experiment: Western blot, GLUT-1 protein level
# Description: The cells (500,000) were seeded in 35 mm Petri dishes (Nunc) and incubated in a solution of the tested compound (0.5 µM and 1 µM) for 24 h and 48 h. The cells were then dissociated using trypsin, collected in Eppendorf tubes, and centrifuged at 2,000 rpm. Next, cell pellets were resuspended in complete RIPA buffer containing a Halt Protease Inhibitor Cocktail and Halt Phosphatase Inhibitor Cocktail along with 0.5 M EDTA (all reagents from Thermo Fisher Scientific) and lysed on ice for 20 min. Afterward, the lysates were sonicated and centrifuged at 10,000 rpm for 10 min at 4 °C. The obtained supernatants were collected for further analysis. The protein concentration was determined using a Micro BCA™ Protein Assay Kit (Thermo Fisher Scientific) according to the manufacturer’s procedure. Equal amounts of proteins (16 µg) were electrophoresed on SDS-Page gels and transferred onto nitrocellulose membranes. Novex Sharp Pre-Stained Protein Standard (Thermo Fisher Scientific) was used as a colored molecular weight marker. The membranes were blocked in 5% non-fat milk prepared in TPBS (PBS supplemented by 0.1% Tween-20) for 1 h. After blocking, the membranes were cut, and then incubated with specific primary monoclonal antibodies (all purchased from Cell Signaling) overnight at 4 °C. The antibodies for the target proteins (CDK1 Mouse mAb #9116, p53 Mouse mAb #2524, FAS Mouse mAb #8023, GLUT-1 Rabbit mAb #12939, HO-1 Rabbit mAb #5853, p21^Waf1/Cip1 Rabbit mAb #2947, PARP #9542) were diluted 1:1000, while the antibodies for the reference proteins (GAPDH Rabbit mAb #2118, β-actin Mouse mAb #3700, and vinculin Rabbit mAb #13901) were diluted 1:2000. The following day, the membranes were washed in TPBS and incubated with horseradish peroxidase (HRP)-conjugated secondary antibodies (Anti-rabbit IgG, HRP-linked Antibody #7074 or Anti-mouse IgG, HRP-linked Antibody #7076) for 1 h at room temperature. The membranes were then washed in TPBS and incubated with a SuperSignal™ West Pico Chemiluminescent Substrate (Thermo Fisher Scientific). Finally, the membranes were visualized using a ChemiDoc™ XRS + System (Bio-Rad). The experiments were carried out four to five times. The densitometric analysis was performed using ImageJ software (Wayne Rasband, National Institutes of Health, USA).
# We, therefore, decided to test the effect of the tested compound on the level of the main glucose transporter, GLUT-1. […] The validity of the described conclusions was confirmed by the results that were obtained for doxorubicin. in which p53 activation occurred at both tested time points with a concomitant decrease in the GLUT-1 levels. […] The results that were obtained from the measurements of the expression of this protein were so interesting, and at the same time, inconclusive that we additionally decided to determine the effect of the tested derivative 13 on the expression of the genes encoding selected glucose transporters.
# HCT 116 p53+/+ = experiment: Apoptosis induction assay (Annexin V/7-AAD); conditions: 0.5 µM, 48 h; control nearly 6%
# Description: (§1) The cells were seeded in 35 mm Petri dishes (200,000 per dish) and incubated at 37 °C overnight. The following day, the medium was changed for a freshly prepared 0.5 µM solution of 13. Analysis was carried out after 48 h using an FITC Annexin V Apoptosis Detection KIT with 7-AAD (Bio-Legend) according to the manufacturer’s protocol. In brief, both adherent and detached cells were collected, washed two times with cold PBS, and centrifuged at 300 g (5 min). Next, the cells were resuspended in 100 µL Annexin V Binding Buffer, 5 µL of FITC Annexin V, and 5 µL 7-AAD Viability Staining Solution. The samples were incubated in the dark for 15 min at room temperature. The percentage of live and apoptotic (sum of early and late apoptotic) cells was estimated using a Muse™ Cell Analyzer. The experiments were carried out three times.
# (§2) Because derivative 13 affected the cell cycle progression, we decided to determine the type of induced cell death by focusing on the apoptosis pathway. The analysis was performed by measuring the green fluorescence of the annexin V – FITC dye conjugate using capillary flow cytometry. Positive staining is observed when the annexin V binds to the disintegrated membrane of apoptotic cells. […]
# HCT 116 p53-/- = experiment: Apoptosis induction assay (Annexin V/7-AAD); conditions: 0.5 µM, 48 h; control nearly 6%
# Description: as §1, §2
smiles,measurement,setting,value
O=[N+]([O-])c1ccc(/C=C/c2ccnc3ccccc23)o1 [Compound 13],HO-1 protein level vs control,"HO-1; HCT 116 p53+/+, 1 µM",more than twelve-fold
same,HO-1 protein level vs control,"HO-1; HCT 116 p53-/-, 1 µM",six-fold
same,HO-1 protein level vs control,"HO-1; U-251, 1 µM",four-fold
same,GLUT-1 protein level vs control,"GLUT-1; HCT 116 p53+/+, 24-h incubation",decrease
same,GLUT-1 protein level vs control,"GLUT-1; HCT 116 p53+/+, 48-h",rapid activation
same,GLUT-1 protein level vs control,GLUT-1; HCT 116 p53-/-,decrease
same,GLUT-1 protein level vs untreated cells,GLUT-1; U-251,not detectable
same,percentage of apoptotic cells,HCT 116 p53+/+,40%
same,percentage of apoptotic cells,HCT 116 p53-/-,30%
